Assay results from the supplement of paper PMC4628005.

Tests used:
Conditions in all cases: drug exposure time: 96 h
17-AAG = compound: C=CCNC1=C2C[C@@H](C)C[C@H](OC)[C@H](O)[C@@H](C)/C=C(\C)[C@H](OC(N)=O)[C@@H](OC)/C=C\C=C(/C)C(=O)NC(=CC1=O)C2=O [17-AAG]
Procedure: (§1)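 Same SRB 96 h IC50 screen on breast cancer cell lines (RPMI 1640 + 10% FBS, collagen I-coated 96-well plates, triplicates, 12 dilutions), for drugs with a different dose range: Bortezomib up to 2e-5 M; Sirolimus and 17-AAG up to 2e-6 M. Sirolimus values at the 2e-6 M top dose are censored.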

Bortezomib = compound: CC(C)C[C@H](NC(=O)[C@H](Cc1ccccc1)NC(=O)c1cnccn1)B(O)O [Bortezomib]
Procedure: as §1

Sirolimus = compound: CO[C@H]1C[C@@H]2CC[C@@H](C)[C@@](O)(O2)C(=O)C(=O)N2CCCC[C@H]2C(=O)O[C@H]([C@H](C)C[C@@H]2CC[C@@H](O)[C@H](OC)C2)CC(=O)[C@H](C)/C=C(\C)[C@@H](O)[C@@H](OC)C(=O)[C@H](C)C[C@H](C)/C=C/C=C/C=C/1C [Sirolimus]
Procedure: as §1

Tamoxifen = compound: CC/C(=C(\c1ccccc1)c1ccc(OCCN(C)C)cc1)c1ccccc1 [Tamoxifen]
Procedure: (§2)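 Breast cancer cell lines were grown in RPMI 1640 with 10% FBS on collagen I-coated 96-well plates and treated for 96 h (from 24 h after seeding) with 12 dilutions per drug, in triplicate. Growth was read by sulforhodamine B total-protein staining (absorbance 570 nm) relative to diluent control, and IC50 was calculated. The top dose was 1e-5 M for most drugs; Bortezomib went to 2e-5 M and Sirolimus and 17-AAG to 2e-6 M[…].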

Sorafenib = compound: CNC(=O)c1cc(Oc2ccc(NC(=O)Nc3ccc(Cl)c(C(F)(F)F)c3)cc2)ccn1 [Sorafenib]
Procedure: as §2

Cisplatin = compound: N.N.[Cl][Pt][Cl] [Cisplatin]
Procedure: as §2

Nutlin-3 = compound: COc1ccc(C2=N[C@@H](c3ccc(Cl)cc3)[C@@H](c3ccc(Cl)cc3)N2C(=O)N2CCNC(=O)C2)c(OC(C)C)c1 [Nutlin-3]
Procedure: as §2

Quisinostat = compound: Cn1cc(CNCC2CCN(c3ncc(C(=O)NO)cn3)CC2)c2ccccc21 [Quisinostat]
Procedure: as §2

Docetaxel = compound: CC(=O)O[C@@]12CO[C@@H]1C[C@H](O)[C@@]1(C)C(=O)[C@H](O)C3=C(C)[C@@H](OC(=O)[C@H](O)[C@@H](NC(=O)OC(C)(C)C)c4ccccc4)C[C@@](O)([C@@H](OC(=O)c4ccccc4)[C@H]21)C3(C)C [Docetaxel]
Procedure: as §2

Lapatinib = compound: CS(=O)(=O)CCNCc1ccc(-c2ccc3ncnc(Nc4ccc(OCc5cccc(F)c5)c(Cl)c4)c3c2)o1 [Lapatinib]
Procedure: as §2

Erlotinib = compound: C#Cc1cccc(Nc2ncnc3cc(OCCOC)c(OCCOC)cc23)c1 [Erlotinib]
Procedure: as §2

Brivanib = compound: Cc1cc2c(F)c(Oc3ncnn4cc(OC[C@@H](C)O)c(C)c34)ccc2[nH]1 [Brivanib]
Procedure: as §2

Vandetanib = compound: COc1cc2/c(=N/c3ccc(Br)cc3F)nc[nH]c2cc1OCC1CCN(C)CC1 [Vandetanib]
Procedure: as §2

Doxorubicin = compound: COc1cccc2c1C(=O)c1c(O)c3c(c(O)c1C2=O)C[C@@](O)(C(=O)CO)C[C@@H]3O[C@H]1C[C@H](N)[C@H](O)[C@H](C)O1 [Doxorubicin]
Procedure: as §2

Methotrexate = compound: CN(Cc1cnc2nc(N)nc(N)c2n1)c1ccc(C(=O)N[C@@H](CCC(=O)O)C(=O)O)cc1 [Methotrexate]
Procedure: as §2

Gefitinib = compound: COc1cc2ncnc(Nc3ccc(F)c(Cl)c3)c2cc1OCCCN1CCOCC1 [Gefitinib]
Procedure: as §2

Tipifarnib = compound: Cn1cncc1[C@@](N)(c1ccc(Cl)cc1)c1ccc2c(c1)c(-c1cccc(Cl)c1)cc(=O)n2C [Tipifarnib]
Procedure: as §2

Serdemetan = compound: c1ccc2c(CCNc3ccc(Nc4ccncc4)cc3)c[nH]c2c1 [Serdemetan]
Procedure: as §2

Decitabine = compound: Nc1ncn([C@H]2C[C@H](O)[C@@H](CO)O2)c(=O)n1 [Decitabine]
Procedure: as §2

5-Fluorouracil = compound: O=c1[nH]cc(F)c(=O)[nH]1 [5-Fluorouracil]
Procedure: as §2

Paclitaxel = compound: CC(=O)O[C@H]1C(=O)[C@@]2(C)[C@H]([C@H](OC(=O)c3ccccc3)[C@]3(O)C[C@H](OC(=O)[C@H](O)[C@@H](NC(=O)c4ccccc4)c4ccccc4)C(C)=C1C3(C)C)[C@]1(OC(C)=O)CO[C@@H]1C[C@@H]2O [Paclitaxel]
Procedure: as §2

ARQ197 = compound: O=C1NC(=O)[C@@H](c2cn3c4c(cccc24)CCC3)[C@@H]1c1c[nH]c2ccccc12 [ARQ197]
Procedure: as §2

Panobinostat = compound: Cc1[nH]c2ccccc2c1CCNCc1ccc(/C=C/C(=O)NO)cc1 [Panobinostat]
Procedure: as §2

Belinostat = compound: O=C(/C=C/c1cccc(S(=O)(=O)Nc2ccccc2)c1)NO [Belinostat]
Procedure: as §2

Sunitinib = compound: CCN(CC)CCNC(=O)c1c(C)[nH]c(/C=C2\C(=O)Nc3ccc(F)cc32)c1C [Sunitinib]
Procedure: as §2

Mitoxantrone = compound: O=C1c2c(O)ccc(O)c2C(=O)c2c(NCCNCCO)ccc(NCCNCCO)c21 [Mitoxantrone]
Procedure: as §2

MI-219 = compound: CC(C)(C)C[C@H]1N[C@@H](C(=O)NCC[C@H](O)CO)[C@H](c2cccc(Cl)c2)[C@@]12C(=O)Nc1cc(Cl)c(F)cc12 [MI-219]
Procedure: as §2

Azacitidine = compound: Nc1ncn([C@@H]2O[C@H](CO)[C@@H](O)[C@H]2O)c(=O)n1 [Azacitidine]
Procedure: as §2

Dasatinib = compound: Cc1nc(Nc2ncc(C(=O)Nc3c(C)cccc3Cl)s2)cc(N2CCN(CCO)CC2)n1 [Dasatinib]
Procedure: as §2

Vorinostat = compound: O=C(CCCCCCC(=O)Nc1ccccc1)NO [Vorinostat]
Procedure: as §2

| Test System | IC50 (SRB growth assay) (17-AAG) [nM] | IC50 (SRB growth assay) (Bortezomib) [nM] | IC50 (SRB growth assay) (Sirolimus) [nM] | IC50 (SRB growth assay) (Tamoxifen) [nM] | IC50 (SRB growth assay) (Sorafenib) [nM] | IC50 (SRB growth assay) (Cisplatin) [nM] | IC50 (SRB growth assay) (Nutlin-3) [nM] | IC50 (SRB growth assay) (Quisinostat) [nM] | IC50 (SRB growth assay) (Docetaxel) [nM] | IC50 (SRB growth assay) (Lapatinib) [nM] | IC50 (SRB growth assay) (Erlotinib) [nM] | IC50 (SRB growth assay) (Brivanib) [nM] | IC50 (SRB growth assay) (Vandetanib) [nM] | IC50 (SRB growth assay) (Doxorubicin) [nM] | IC50 (SRB growth assay) (Methotrexate) [nM] | IC50 (SRB growth assay) (Gefitinib) [nM] | IC50 (SRB growth assay) (Tipifarnib) [nM] | IC50 (SRB growth assay) (Serdemetan) [nM] | IC50 (SRB growth assay) (Decitabine) [nM] | IC50 (SRB growth assay) (5-Fluorouracil) [nM] | IC50 (SRB growth assay) (Paclitaxel) [nM] | IC50 (SRB growth assay) (ARQ197) [nM] | IC50 (SRB growth assay) (Panobinostat) [nM] | IC50 (SRB growth assay) (Belinostat) [nM] | IC50 (SRB growth assay) (Sunitinib) [nM] | IC50 (SRB growth assay) (Mitoxantrone) [nM] | IC50 (SRB growth assay) (MI-219) [nM] | IC50 (SRB growth assay) (Azacitidine) [nM] | IC50 (SRB growth assay) (Dasatinib) [nM] | IC50 (SRB growth assay) (Vorinostat) [nM] |
| --- | --- | --- | --- | --- | --- | --- | --- | --- | --- | --- | --- | --- | --- | --- | --- | --- | --- | --- | --- | --- | --- | --- | --- | --- | --- | --- | --- | --- | --- | --- |
| EVSA-T | 5.76 | 2.74 | 0.0536 | 4960 | 2240 | > 10000 | > 10000 | 1.36 | 0.4 | 2530 | > 10000 | > 10000 | 2020 | 8.01 | 6030 | 7520 | 18.5 | 1130 | 2250 | 1740 | 1.09 | 218 | 3.19 | 85.1 | 2200 | 2.68 | > 10000 | 3840 | > 10000 | 380 |
| HCC 1954 | 26.4 | 5.29 | 0.0308 | 5420 | 5510 | > 10000 | > 10000 | 7.36 | 0.37 | 182 | 361 | 5340 | 894 | 11.1 | 10.2 | 435 | 449 | 1280 | 1650 | 2490 | 1.37 | 205 | 9.53 | 142 | 5340 | 8.2 | > 10000 | 807 | 2290 | 452 |
| MDA-MB 436 | 34.9 | 6.95 | 3.42 | > 10000 | 4830 | 1400 | > 10000 | 23.5 | 0.772 | 4660 | 1970 | > 10000 | 4100 | 5.7 | 27.7 | 4960 | 703 | 1000 | 783 | 981 | 2.3 | 359 | 34.6 | 637 | 2170 | 0.781 | > 10000 | 1670 | 1290 | 1890 |
| MPE 600 | 104 | 5.48 | 1.52 | > 10000 | 1900 | > 10000 | 4450 | 14.8 | 1.15 | 3080 | 8850 | > 10000 | 1990 | 26.6 | 31 | 4260 | 631 | 2260 | 595 | 1250 | 2.51 | 859 | 13.8 | 379 | 6560 | 8.01 | 2050 | 548 | > 10000 | 1220 |
| HCC 202 | 49.5 | 1.51 | 5.17 | > 10000 | 5170 | > 10000 | > 10000 | 6.54 | 1.72 | 199 | 6060 | > 10000 | 3780 | 76.5 | 47.6 | 8050 | > 10000 | 5010 | > 10000 | 7370 | 4.3 | 427 | 16.7 | 487 | > 10000 | 213 | > 10000 | 4630 | 1200 | 1130 |
| HCC 1569 | 90 | 5.08 | 0.355 | 5680 | 4350 | > 10000 | > 10000 | 7.46 | 7.63 | 857 | 3240 | > 10000 | 2070 | 42.1 | > 10000 | 7430 | 938 | 1800 | > 10000 | 8210 | 66.2 | 619 | 14.4 | 521 | 6490 | 31.4 | > 10000 | 2620 | 381 | 1070 |
| HCC 38 | 72.2 | 5.22 | 0.166 | > 10000 | 5260 | > 10000 | > 10000 | 3.31 | 0.51 | 5520 | > 10000 | > 10000 | 5540 | 5.51 | 12.3 | > 10000 | 294 | 443 | 132 | 2790 | 1.39 | 131 | 6.57 | 250 | 9910 | 1.89 | > 10000 | 746 | 115 | 610 |
